Data: patent US9365522B2, “Pyrazole amide derivative” (AMGEN INC., priority 2015, dated 2016)

Target: T1, ligand binding domain of human ROR gamma (Homo sapiens, UniProt P51449)
T1 construct: NM_001001523; expressed in transfected cells; host or cells: HEK293T
T1 sequence (P51449 247-497 isoform P51449-2): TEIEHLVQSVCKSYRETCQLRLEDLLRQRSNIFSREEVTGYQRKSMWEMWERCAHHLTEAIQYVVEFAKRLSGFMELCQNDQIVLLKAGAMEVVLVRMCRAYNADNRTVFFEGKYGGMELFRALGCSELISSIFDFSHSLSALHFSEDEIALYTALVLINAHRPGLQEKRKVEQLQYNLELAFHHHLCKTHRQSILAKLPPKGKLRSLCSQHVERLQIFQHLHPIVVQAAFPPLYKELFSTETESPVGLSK
Experiment: ROR gamma reporter gene assay (GAL4-RORγ LBD luciferase, Dual-Glo)
Format: cell-based
Conditions: HEK293T cells transfected with pM-ROR gamma, 8 concentrations 3.5 nM to 10.5 μM, 24 h incubation; read-out: result (pIC50, inhibition of RORγ transcriptional activity) (converted)
Procedure, shortened: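 Transient GAL4-RORγ LBD (aa 247-497) / 5×UAS-luc / pRL-CMV cotransfection in HEK293T, charcoal-stripped 10% FBS. 8-pt dose, 3.5 nM–10.5 μM, 0.075% DMSO final. 24 h, 37 °C, 5% CO2. Dual-Glo firefly/renilla readout; pIC50 from curve fit.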

| Compound | IC50 [pM] |
| --- | --- |
| C[C@]1(C(=O)O)CC[C@@H](n2ncc(C(=O)N(CC(=O)c3c(Cl)cncc3Cl)Cc3ccc(F)cc3)c2C(F)(F)F)CC1 [Example 79, trans-4-(4-((2-(3,5-dichloropyridin-4-yl)-2-oxoethyl)(4-fluorobenzyl)carbamoyl)-5-(trifluoromethyl)-1H-pyrazol-1-yl)-1-methylcyclohexanecarboxylic acid] | 209000 |
| O=C(CN(Cc1ccc(F)cc1)C(=O)c1cnn([C@H]2CC[C@@](F)(C(=O)O)CC2)c1C(F)(F)F)c1c(Cl)cncc1Cl [Example 80, trans-4-(4-((2-(3,5-dichloropyridin-4-yl)-2-oxoethyl)(4-fluorobenzyl)carbamoyl)-5-(trifluoromethyl)-1H-pyrazol-1-yl)-1-fluorocyclohexanecarboxylic acid] | 661000 |
| O=C(CN(Cc1ccc(F)cc1)C(=O)c1cnn([C@H]2CC[C@](F)(C(=O)O)CC2)c1C(F)(F)F)c1c(Cl)cncc1Cl [Example 81, cis-4-(4-((2-(3,5-dichloropyridin-4-yl)-2-oxoethyl)(4-fluorobenzyl)carbamoyl)-5-(trifluoromethyl)-1H-pyrazol-1-yl)-1-fluorocyclohexanecarboxylic acid] | 93300 |
| O=C(CN(Cc1ccc(F)cc1)C(=O)c1cnn([C@H]2C[C@H](C(=O)O)C2)c1C(F)(F)F)c1c(Cl)cncc1Cl [Example 82, trans-3-(4-((2-(3,5-dichloropyridin-4-yl)-2-oxoethyl)(4-fluorobenzyl)carbarnoyl)-5-(trifluoromethyl)-1H-pyrazol-1-yl)cyclobutanecarboxylic acid] | 81300 |
| CC(F)(F)c1c(C(=O)N(CC(=O)c2c(Cl)cncc2Cl)Cc2ccc(F)cc2)cnn1[C@H]1CC[C@H](C(=O)O)CC1 [Example 84, trans-4-(4-((2-(3,5-dichloropyridin-4-yl)-2-oxoethyl)(4-fluorobenzyl)carbamoyl)-5-(1,1-difluoroethyl)-1H-pyrazol-1-yl)cyclohexanecarboxylic acid] | 107000 |
| O=C(CN(Cc1cc(F)cc(F)c1)C(=O)c1cnn([C@H]2CC[C@H](O)CC2)c1C(F)(F)F)c1c(Cl)cncc1Cl [Example 85, N-(2-(3,5-dichloropyridin-4-yl)-2-oxoethyl)-N-(3,5-difluorobenzyl)-1-(trans-4-hydroxycyclohexyl)-5-(trifluoromethyl)-1H-pyrazole-4-carboxamide] | 1.48e+06 |
| C[S+](=O)([O-])[C@H]1CC[C@@H](n2ncc(C(=O)N(CC(=O)c3c(Cl)cncc3Cl)Cc3ccc(F)cc3)c2C(F)(F)F)CC1 [Example 86, N-(2-(3,5-dichloropyridin-4-yl)-2-oxoethyl)-N-(4-fluorobenzyl)-1-(cis-4-(methylsulfonyl)cyclohexyl)-5-(trifluoromethyl)-1H-pyrazole-4-carboxamide] | 162000 |
| C[S+](=O)([O-])[C@H]1CC[C@H](n2ncc(C(=O)N(CC(=O)c3c(Cl)cncc3Cl)Cc3ccc(F)cc3)c2C(F)(F)F)CC1 [Example 87, N-(2-(3,5-dichloropyridin-4-yl)-2-oxoethyl)-N-(4-fluorobenzyl)-1-(trans-4-(methylsulfonyl)cyclohexyl)-5-(trifluoromethyl)-1H-pyrazole-4-carboxamide] | 141000 |
| NC(=O)[C@H]1CC[C@H](n2ncc(C(=O)N(CC(=O)c3c(Cl)cncc3Cl)Cc3ccc(F)cc3)c2C(F)(F)F)CC1 [Example 88, l-(trans-4-carbamoylcyclohexyl)-N-(2-(3,5-dichloropyridin-4-yl)-2-oxoethyl)-N-(4-fluorobenzyl)-5-(trifluoromethyl)-1H-pyrazole-4-carboxamide] | 87100 |
| O=C(CN(Cc1ccc(F)cc1)C(=O)c1cnn([C@H]2CC[C@H](C(=O)NCCO)CC2)c1C(F)(F)F)c1c(Cl)cncc1Cl [Example 89, N-(2-(3,5-dichloropyridin-4-yl)-2-oxoethyl)-N-(4-fluorobenzyl)-1-(trans-4-((2-hydroxyethyl)carbamoyl)cyclohexyl)-5-(trifluoromethyl)-1H-pyrazole-4-carboxamide] | 1.38e+06 |
| O=C(c1cnn([C@H]2CC[C@H](C(=O)O)CC2)c1C(F)(F)F)N(Cc1ccc(F)cc1)CC(O)c1c(Cl)cncc1Cl (stereo partly drawn) [Example 90, trans-4-(4-((2-(3,5-dichloropyridin-4-yl)-2-hydroxyethyl)(4-fluorobenzyl)carbamoyl)-5-(trifluoromethyl)-1H-pyrazol-1-yl)cyclohexanecarboxylic acid] | 501000 |
| O=C(c1cnn([C@H]2CC[C@H](C(=O)O)CC2)c1C(F)(F)F)N(Cc1ccc(F)cc1)CC(F)c1c(Cl)cccc1Cl (stereo partly drawn) [Example 91, trans-4-(4-((2-(2,6-dichlorophenyl)-2-fluoroethyl)(4-fluorobenzyl)carbamoyl) (trifluoromethyl)-1H-pyrazol-1-yl)cyclohexanecarboxylic acid] | 4370 |
| O=C(CN(Cc1ccc(F)cc1)C(=O)c1cnn([C@H]2CC[C@H](C(=O)O)C2)c1C(F)(F)F)c1c(Cl)cncc1Cl [Example 92, (1S,3S)-3-(4-((2-(3,5-dichloropyridin-4-yl)-2-oxoethyl)-((4-fluorophenyl)methyl)carbamoyl)-5-(trifluoromethyl)pyrazol-1-yl)cyclopentane-1-carboxylic acid] | 155000 |
| CC(C)(C)CN(CC(=O)c1c(Cl)cc(F)cc1Cl)C(=O)c1cnn([C@H]2CC[C@](C)(C(=O)O)CC2)c1C(F)(F)F [Example 94, trans-4-(4-((2-(2,6-dichloro-4-fluorophenyl)-2-oxoethyl)-(2,2-dimethylpropyl)carbamoyl)-5-(trifluoromethyl)pyrazol-1-yl)-1-methylcyclohexane-1-carboxylic acid] | 8320 |
| CC(C)(C)OCCN(CC(=O)c1c(Cl)cncc1Cl)C(=O)c1cnn([C@H]2CC[C@H](C(=O)O)CC2)c1C(F)(F)F [Example 95, trans-(4((2-(3,5-dichloropyridin-4-yl)-2-oxoethyl)-(2-((2-methylpropan-2-yl)oxy)ethyl)carbamoyl)-5-(trifluoromethyl)pyrazol-1-yl)cyclohexane-1-carboxylic acid] | 151000 |
| O=C(c1cnn([C@H]2CC[C@H](C(=O)O)CC2)c1C(F)(F)F)N(Cc1ccc(F)cc1)CC(F)(F)c1c(Cl)cccc1Cl [Example 96, trans-4-(4-((2-(2,6-dichlorophenyl)-2,2-difluoroethyl)-((4-fluorophenyl)methyl)carbamoyl)-5-(trifluoromethyl)pyrazol-1-yl)cyclohexane-1-carboxylic acid] | 28800 |
| NC(=O)c1cc(Cl)c(C(=O)CN(Cc2cc(F)cc(F)c2)C(=O)c2cnn([C@H]3CC[C@H](C(=O)O)CC3)c2C(F)(F)F)c(Cl)c1 [Example 97, trans-4-(4-((2-(4-carbamoyl-2,6-dichlorophenyl)-2-oxoethyl)-((3,5 difluorophenyl)methyl)carbamoyl)-5-(trifluoromethyl)pyrazol-1-yl)cyclohexane-1-carboxylic acid] | 282000 |
| O=C(O)c1cc(Cl)c(C(=O)CN(Cc2cc(F)cc(F)c2)C(=O)c2cnn([C@H]3CC[C@H](C(=O)O)CC3)c2C(F)(F)F)c(Cl)c1 [Example 98, trans-4-(2-((1-(4-carboxycyclohexyl)-5-(trifluoromethyl)pyrazole-4-carbonyl)-((3,5-difluorophenyl)methyl)amino)acetyl)-3,5-dichlorobenzoic acid] | > 1e+07 |
| O=C(CN(Cc1cc(F)cc(F)c1)C(=O)c1cnn([C@H]2CC[C@H](C(=O)O)CC2)c1C(F)(F)F)c1ccccc1Cl [Example 99, trans-4-(4-((2-(2-chlorophenyl)-2-oxoethyl)-((3,5-difluorophenyl)methyl)carbamoyl)-5-(trifluoromethyl)pyrazol-1-yl)cyclohexane-1-carboxylic acid] | 105000 |
| CC(CN(Cc1ccc(F)cc1)C(=O)c1cnn([C@H]2CC[C@H](C(=O)O)CC2)c1C(F)(F)F)c1c(Cl)cccc1Cl (stereo partly drawn) [Example 100, trans-4-(4-(2-(2,6-dichlorophenyl)propyl-((4-fluorophenyl)methyl)carbamoyl)-5-(trifluoromethyl)pyrazol-1-yl)cyclohexane-1-carboxylic acid] | 234000 |
| O=C(CN(CC1CCC(F)(F)CC1)C(=O)c1cnn([C@H]2CC[C@H](C(=O)O)CC2)c1C(F)(F)F)c1c(Cl)cncc1Cl [Example 101, trans-4-(4-((2-(3,5-dichloropyridin-4-yl)-2-oxoethyl)-((4,4-difluorocylohexyl)methyl)carbamoyl)-5-(trifluoromethyl)pyrazol-1-yl)cyclohexane-1-carboxylic acid] | 87100 |
| CC1(CN(CC(=O)c2c(Cl)cncc2Cl)C(=O)c2cnn([C@H]3CC[C@H](C(=O)O)CC3)c2C(F)(F)F)CCCCC1 [Example 102, trans-4-(4-((2-(3,5-dichloropyridin-4-yl)-2-oxoethyl)-((1-methylcyclohexyl)methyl)carbamoyl)-5-(trifluoromethyl)pyrazol-1-yl)cyclohexane-1-carboxylic acid] | 74100 |
| O=C(CN(Cc1ccccn1)C(=O)c1cnn([C@H]2CC[C@H](C(=O)O)CC2)c1C(F)(F)F)c1c(Cl)cncc1Cl [Example 103, trans-4-(4-((2-(3,5-dichloropyridin-4-yl)-2-oxoethyl)-(pyridin-2-ylmethyl)carbamoyl)-5-(trifluorornethyl)pyrazol-1-yl)cyclohexane-1-carboxylic acid] | 1.91e+06 |
